From patent US7432278B2, “Dicationic imidazo[1,2-a]pyridines and 5,6,7,8-tetrahydro-imidazo[1,2-a]pyridines as antiprotozoal agents” (The University of North Carolina at Chapel Hill, priority 2004, dated 2008) come the findings set out here.

Where a name gives a salt, the structure may show the parent alone. Read-outs that look alike come from different tables or passages of the source. Some results are limits rather than exact numbers.

The test system of one data set is Poly-(dA.dT)2. Nature of the data set: DNA binding studies (ΔTm). The settings on record: DNA affinity. On the procedure:
(§1) The DNA binding studies and both the in vitro and in vivo antiprotozoan studies were performed as described by Ismail. M. A., et al., J. Med. Chem., 46, 4761-4769 (2003), which is incorporated herein by reference in its entirety.
Table 1 contains the results from the DNA binding studies for the new diamidines and the in vitro results for the compounds tested against T. b. r. and P. f. […] As a representative example of this class of compounds, compound 12 was evaluated and gave a ΔTm value of only 0.3.

For data set [1], the system named is T. b. r. (STIB900 acute infection). Nature of the data set: In vivo anti-trypanosomal activity in the STIB900 mouse model. The settings on record: for Survival: average days of survival; for in vivo effectiveness on oral dosage (in words): STIB900 model. On the procedure: as §1
In this model five of the diamidines (8a, 8b, 7, 14b, 14a) give 4/4 cures and two, 13a and 14c, give 3/4 cures on intraperitoneal dosage. […] No attempts were made to optimize the formulation. […] One of ordinary skill in the art would appreciate that optimization of the formulation could improve the oral bioavailability of the prodrug.

Another data set has as its system Plasmodium falciparum. Briefly: In vitro anti-protozoan activity against P. f. To be noted: concentration that gives 50% growth inhibition, average of duplicate determinations, K = 1,000. Format: cell-based. On the procedure: as §1
Data set [2] concerns Trypanosoma brucei rhodesiense. Briefly: In vitro anti-protozoan activity against T. b. r. The data set is classed as cell-based. The settings on record: for IC50: read-out: T.b.r. IC50; for in vitro activity (in words): against T. b. r. and P. f. (Table 1). On the procedure:
The DNA binding studies and both the in vitro and in vivo antiprotozoan studies were performed as described by Ismail. M. A., et al., J. Med. Chem., 46, 4761-4769 (2003), which is incorporated herein by reference in its entirety. […]

[3] abbreviates: Mus musculus, 1440 h, ip, 20 mg/kg, number of mice that survive and are parasite free for 60 days, read-out: Cures (converted).
[4] abbreviates: Trypanosoma brucei, RHODESIENSE, concentration that gives 50% growth inhibition, average of duplicate determinations, K = 1,000.
[5] abbreviates: Mus musculus, 1440 h, po, 100 mg/kg, number of mice that survive and are parasite free for 60 days, read-out: Cures (converted).
[6] abbreviates: concentration that gives 50% growth inhibition, average of duplicate determinations, K = 1,000.
The mark [7] stands for this setting: Mus musculus, 1440 h, po, 75 mg/kg, number of mice that survive and are parasite free for 60 days, read-out: Cures.

Take `N=C(N)c1ccc(OCCCCCOc2ccc(C(=N)N)cc2)cc1` [Pentamidine(I), Pentamidine, reference compound]: the ΔTm Poly-(dA.dT)2 in the data set with Poly-(dA.dT)2 was 12 °C. In addition, the responders at 20 mg/kg in data set [1] (setting [3]) is 0%. The “Survival” value in data set [1] (ip, 20 mg/kg) worked out at 40.8 days.

In the case of `Cc1cc(C(=N)N)cn2cc(-c3cccc(-c4ccc(C(=N)N)cc4)c3)nc12` [Compound 14c, 2-(4′-Amidinobiphenyl-3-yl)-8-methyl-imidazo[1,2-a]pyridine-6-carboxamidine], the IC50 in the data set on Plasmodium falciparum (Plasmodium falciparum) was 0.086 µM; in data set [2] (setting [4]), 0.049 µM. Besides, the ΔTm Poly-(dA.dT)2 with Poly-(dA.dT)2 was greater than 27 °C. In data set [1] (setting [3]), the responders at 20 mg/kg is 75%. Further, the “Survival” value in data set [1] (ip, 20 mg/kg) is given as greater than 50 days.

As to `CONC(=N)c1ccc(-c2ccc(-c3cn4cc(C(=N)NOC)ccc4n3)o2)cc1` [Compound 6, N-Methoxy-2-{5-[4-(N-methoxyamidino)-phenyl]-furan-2-yl}-imidazo[1,2-a]pyridine-6-carboxamidine], the figures for the IC50 (with Plasmodium falciparum (Plasmodium falciparum); in data set [2] (setting [4])) were 2.8 µM and 3 µM, respectively. The “in vitro activity (in words)” value in data set [2] was “essentially no in vitro activity”. Moreover, the responders at 100 mg/kg in data set [1] (setting [5]) was 50%. Further, the “in vivo effectiveness on oral dosage (in words)” value (shortened to “in vivo effectiveness”) in data set [1] is given as “did not show high in vivo effectiveness”. For the same molecule, in data set [1] (po, 100 mg/kg), the “Survival” value is reported as greater than 39.5 days.

On to `N=C(N)c1ccc(-c2cccc(-c3cn4c(n3)CCC(C(=N)N)C4)c2)cc1` (centres unmarked) [Compound 13b, 2-(4′-Amidinobiphenyl-3-yl)-5,6,7,8-tetrahydro-imidazo[1,2-a]pyridine-6-carboxamidine], for which the IC50 in the data set with Plasmodium falciparum (Plasmodium falciparum) was 0.086 µM; in data set [2] (setting [4]), 0.226 µM. Moreover, the ΔTm Poly-(dA.dT)2 in the data set with Poly-(dA.dT)2 is 19.1 °C.

`N=C(NO)c1ccc(-c2ccc(-c3cn4cc(C(=N)NO)ccc4n3)o2)cc1` [Compound 5a, N-Hydroxy-2-{5-[4-(N-hydroxyamidino)-phenyl]-furan-2-yl}-imidazo[1,2-a]pyridine-6-carboxamidine]: the IC50 is 1.6 µM with Plasmodium falciparum (Plasmodium falciparum) and 2.2 µM in data set [2] (setting [4]). Moreover, in data set [2], the “in vitro activity (in words)” value is “essentially no in vitro activity”. Moreover, in data set [1] (Mus musculus, 1440 h, po, 50 mg/kg, number of mice that survive and are parasite free for 60 days, read-out: Cures (converted)), the responders at 50 mg/kg was 25%. For the same molecule, the “in vivo effectiveness” value in data set [1] is listed as “did not show high in vivo effectiveness”. Besides, in data set [1] (po, 50 mg/kg), the “Survival” value was greater than 19.5 days.

`N=C(N)c1ccc(-c2ccc3nc(-c4ccc(C(=N)N)cc4)cn3c2)cc1` [Compound 19]: the IC50 in the data set with Plasmodium falciparum is 0.092 µM; in data set [2] (setting [6]) it was 0.007 µM.

Turning to `N=C(N)c1ccc(-c2cn3c(n2)CCC(c2ccc(C(=N)N)cc2)C3)cc1` (centres unmarked) [Compound 18], the results for the IC50 (in the data set with Plasmodium falciparum; in data set [2] (setting [6])) were 0.085 µM and 0.014 µM, respectively.

`N=C(NO)c1ccc(-c2cccc(-c3cn4cc(C(=N)NO)ccc4n3)c2)cc1` [Compound 11b, N-Hydroxy-2-[4′-(N-hydroxyamidino)-biphenyl-3-yl]-imidazo[1,2-a]pyridine-6-carboxamidine] yielded a melting point of 252 to 254 °C.

In the case of `N=C(N)c1ccc(-c2ccc(-c3cn4cc(C(=N)N)ccc4n3)cc2)cc1` [Compound 14a, 2-(4′-Amidinobiphenyl-4-yl)-imidazo[1,2-a]pyridine-6-carboxamidine], the IC50 in the data set with Plasmodium falciparum (Plasmodium falciparum) came to 0.043 µM; in data set [2] (setting [4]), 0.001 µM. The ΔTm Poly-(dA.dT)2 with Poly-(dA.dT)2 came to 24.2 °C. The responders at 20 mg/kg in data set [1] (setting [3]) was 100%. Besides, the “Survival” value in data set [1] (ip, 20 mg/kg) was greater than 60 days.

With `N=C(N)c1ccc(-c2ccc(-c3cn4c(n3)CCC(C(=N)N)C4)o2)cc1` (centres unmarked) [Compound 7, 2-[5-(4-Amidinophenyl)-furan-2-yl]-5,6,7,8-tetrahydro-imidazo[1,2-a]pyridine-6-carboxamidine], the IC50 in the data set with Plasmodium falciparum (Plasmodium falciparum) worked out at 1.2 µM; in data set [2] (setting [4]), 0.052 µM. For the same molecule, in the data set with Poly-(dA.dT)2, the ΔTm Poly-(dA.dT)2 is 15.6 °C. Also, the responders at 5 mg/kg in data set [1] (Mus musculus, 1440 h, ip, 5 mg/kg, number of mice that survive and are parasite free for 60 days, read-out: Cures (converted)) is 50%. The responders at 20 mg/kg in data set [1] (setting [3]) is 100%. Further, the “Survival” value in data set [1] (ip, 5 mg/kg) is greater than 51 days; in data set [1] (ip, 20 mg/kg), greater than 60 days.

Consider `N=C(N)c1ccc(-c2ccc(-c3ccc(C(=N)N)cc3)o2)cc1` [Furamidine(IIa), 2,5-Bis(4-amidinophenyl)furan, reference compound], for which the IC50 in data set [2] (Trypanosoma brucei, RHODESIENSE) was found to be 14.6 µM. In data set [1] (Mus musculus, ip, 1440 h, read-out: Cures), the responders at 20 mg/kg turned out to be 0%. Besides, in data set [1] (ip, 20 mg/kg), the “Survival” value is 52.5 days.

For `N=C(N)c1ccc(-c2ccc(-c3cn4cc(C(=N)N)ccc4n3)o2)cc1` [Compound 8a, 2-[5-(4-Amidinophenyl)-furan-2-yl]-imidazo[1,2-a]pyridine-6-carboxamidine], the IC50 amounted to 0.014 µM with Plasmodium falciparum (Plasmodium falciparum) and 0.063 µM in data set [2] (setting [4]). Further, in the data set with Poly-(dA.dT)2, the ΔTm Poly-(dA.dT)2 came to 26.2 °C. For the same molecule, the responders at 20 mg/kg in data set [1] (setting [3]) is 100%. Besides, the “Survival” value in data set [1] (ip, 20 mg/kg) was greater than 60 days.

Take `Cc1cc(C(=N)NO)cn2cc(-c3cccc(-c4ccc(C(=N)NO)cc4)c3)nc12` [Compound 11c, N-Hydroxy-2-[4′-(N-hydroxyamidino)-biphenyl-3-yl]-8-methyl-imidazo[1,2-a]pyridine-6-carboxamidine]: the melting point lay within 193 to 195 °C.

With `N=C(N)c1ccc(-c2cccc(-c3cn4cc(C(=N)N)ccc4n3)c2)cc1` [Compound 14b, 2-(4′-Amidinobiphenyl-3-yl)-imidazo[1,2-a]pyridine-6-carboxamidine], the IC50 with Plasmodium falciparum (Plasmodium falciparum) was 0.107 µM; in data set [2] (setting [4]), 0.022 µM. In the data set with Poly-(dA.dT)2, the ΔTm Poly-(dA.dT)2 is greater than 27 °C. Besides, the responders at 20 mg/kg in data set [1] (setting [3]) is 100%. For the same molecule, the “Survival” value in data set [1] (ip, 20 mg/kg) is greater than 60 days.

Take `CONC(=N)c1ccc(-c2ccc(-c3cn4cc(C(=N)NOC)ccc4n3)cc2)cc1` [Compound 12, N-Methoxy-2-[4′-(N-methoxyamidino)-biphenyl-4-yl]-imidazo[1,2-a]pyridine-6-carboxamidine]: the IC50 in the data set on Plasmodium falciparum (Plasmodium falciparum) came to 0.395 µM; in data set [2] (setting [4]) it was 5.3 µM. In the data set with Poly-(dA.dT)2, the ΔTm Poly-(dA.dT)2 came to 0.3 °C. For the same molecule, in data set [2], the “in vitro activity (in words)” value was “essentially no in vitro activity”. The responders at 75 mg/kg in data set [1] (setting [7]) came out at 0%. In addition, the “in vivo effectiveness” value in data set [1] is listed as “did not show high in vivo effectiveness”. Also, in data set [1] (po, 75 mg/kg), the “Survival” value is reported as 20 days.

In the case of `N=C(N)c1ccc(-c2ccc(-c3cn4c(n3)CCC(C(=N)N)C4)cc2)cc1` (centres unmarked) [Compound 13a, 2-(4′-Amidinobiphenyl-4-yl)-5,6,7,8-tetrahydro-imidazo[1,2-a]pyridine-6-carboxamidine], the values for the 50% inhibitory concentration (IC50) (in the data set with Plasmodium falciparum (Plasmodium falciparum); in data set [2] (setting [4])) were 0.014 µM and 0.116 µM, respectively. In addition, the ΔTm Poly-(dA.dT)2 with Poly-(dA.dT)2 amounted to 21.3 °C. For the same molecule, in data set [1] (Mus musculus, 1440 h, ip, 10 mg/kg, number of mice that survive and are parasite free for 60 days, read-out: Cures (converted)), the responders at 10 mg/kg is 75%. The “Survival” value in data set [1] (ip, 10 mg/kg) is on record as greater than 51.5 days.

`CONC(=N)c1ccc(-c2ccc(-c3ccc(C(=N)NOC)cc3)o2)cc1` [Compound IIIa, 2,5-Bis[4-(methoxyamidino)phenyl]furan, reference compound]: the IC50 with Plasmodium falciparum (Plasmodium falciparum) came to 0.0155 µM; in data set [2] (setting [4]) it was 0.0045 µM. For the same molecule, the ΔTm Poly-(dA.dT)2 with Poly-(dA.dT)2 was determined as 25 °C. The responders at 100 mg/kg in data set [1] (setting [5]) was 100%. Also, the “Survival” value in data set [1] (po, 100 mg/kg) is listed as greater than 60 days.

`N=C(N)c1ccc(-c2cccc(-c3cn4c(n3)CCC(C(=N)N)C4)c2)cc1` (centres unmarked) (as salt: salt) [Compound 13b, 2-(4′-Amidinobiphenyl-3-yl)-5,6,7,8-tetrahydro-imidazo[1,2-a]pyridine-6-carboxamidine] gave a melting point of 236 to 238 °C.

Take `Cc1cc(C(=N)N)cn2cc(-c3ccc(-c4ccc(C(=N)N)cc4)o3)nc12` [Compound 8b, 2-[5-(4-Amidinophenyl)-furan-2-yl]-8-methyl-imidazo[1,2-a]pyridine-6-carboxamidine]: the IC50 worked out at 0.088 µM in the data set with Plasmodium falciparum (Plasmodium falciparum) and 0.006 µM in data set [2] (setting [4]). Besides, in the data set with Poly-(dA.dT)2, the ΔTm Poly-(dA.dT)2 is greater than 27 °C. In addition, the responders at 20 mg/kg in data set [1] (setting [3]) was 100%. For the same molecule, the “Survival” value in data set [1] (ip, 20 mg/kg) is given as greater than 60 days.

Regarding `N=C(NO)c1ccc(-c2ccc(-c3cn4cc(C(=N)NO)ccc4n3)cc2)cc1` [Compound 11a, N-Hydroxy-2-[4′-(N-hydroxyamidino)-biphenyl-4-yl]-imidazo[1,2-a]pyridine-6-carboxamidine], the figures for the IC50 (in the data set on Plasmodium falciparum (Plasmodium falciparum); in data set [2] (setting [4])) were 0.521 µM and greater than 166 µM, respectively. For the same molecule, the “in vitro activity (in words)” value in data set [2] is “essentially no in vitro activity”. The responders at 75 mg/kg in data set [1] (setting [7]) came out at 0%. For the same molecule, in data set [1], the “in vivo effectiveness” value is given as “did not show high in vivo effectiveness”. The “Survival” value in data set [1] (po, 75 mg/kg) came out at 28 days.
